Data set [1] in a line: Radiolabelled mass balance and metabolic profiles of 14C-parent in Sprague Dawley rats. In kind it is in vivo. The following applies: single 15 mg/kg I.V. dose of 14C-parent. As for the experimental part:
To determine the radiolabelled mass balance and metabolic profiles of (3-{[4-tert-butyl-benzyl)-(pyridine-3-sulfonyl)-amino]-methyl}-phenoxy)-acetic acid in urine, feces, bile and plasma of Sprague-Dawley rats after I.V. administration of a single 15 mg/kg dose of ^14C-(3-{[4-tert-butyl-benzyl)-(pyridine-3-sulfonyl)-amino]-methyl}-phenoxy)-acetic acid.
A group of three male and three female jugular-vein cannulated Sprague-Dawley rats (230-240 g) was housed individually in stainless steel metabolic cages designed to collect urine and feces and administered intravenously a single, 15 mg/kg, dose of ^14C-(3-{[4-tert-butyl-benzyl)-(pyridine-3-sulfonyl)-amino]-methyl}-phenoxy)-acetic acid. […]
The radioactivity in urine, bile and plasma was determined by liquid scintillation counting. Aliquots of urine (0.1 g), bile (0.025 g) or plasma (0.025 g) were mixed with 5 ml of Ecolite (+) scintillation cocktail and counted in a Wallac #1409 liquid scintillation counter (Gaithersburg, Md.). Fecal samples at each time point were homogenized with water, and the total weights of the fecal homogenate were recorded. […]
The radioactivity in the dose was established as 100% of the total radioactivity. The radioactivity at each sampling time for urine and feces was defined as the percentage of dose excreted in the respective matrices. […]

In data set [2] the test system is Human hepatocytes. In words: Metabolism of parent in human hepatocytes. In kind it is in vitro ADME. The following applies: 20 μM parent, 2 million cells per ml, 4 hours, 37° C.; mobile phase pH 5.0. As for the experimental part:
Human hepatocytes were generated from a mix of 3 livers. Rat and monkey hepatocytes were generated using Sprague Dawley rats (12 livers), Cynomolgus monkey (1 liver) and Beagle dogs (2 livers). Cryopreserved hepatocytes were suspended in William's E media with 10% FBS to a viable count of 2 million cells per ml and gassed with 95/5 O2/CO2 initially and every hour of incubations. After the addition of 20 μM (3-{[4-tert-butyl-benzyl)-(pyridine-3-sulfonyl)-amino]-methyl}-phenoxy)-acetic acid to a 25 ml Erlenmeyer flask, 2.5 ml of hepatocytes suspension was added and incubated for 4 hours at 37° C. in a shaking water bath.
Metabolite quantification was performed by measuring the areas of individually separated HPLC peaks using the β-RAM (IN/US, Win-flow). The β-RAM provided integrated peak representation printouts in CPM as well as the percentage of the radiolabeled material. The β-RAM was operated using a solid scintillation cell. […]
Identification of the metabolites was performed using a Finnigan TSQ 7000 triple quadrupole mass spectrometer equipped with an API-2 electrospray interface. […] The β-RAM response was recorded as a real time analog signal by the MS data collection system. The collected data from the radioactivity and MS detectors were separated by the dwell volume of flow from the MS to the radioactivity detector (corresponding to a dwell time of about 0.2 min.). […]

The structures appear in SMILES notation.

With `CC(C)(CO)c1ccc(CN(Cc2cccc(OCC(=O)O)c2)S(=O)(=O)c2cccnc2)cc1` [Metabolite M4, (3-{[[4-(2-hydroxy-1,1-dimethyl-ethyl)-benzyl]-(pyridine-3-sulfonyl)-amino]-methyl}-phenoxy)-acetic acid], in data set [1] (female rats), the “Percentage of metabolite formed in vivo, females (basis of % not stated)” value turned out to be 6.5%. In addition, the “Percentage of metabolite formed in vivo, males (basis of % not stated)” value in data set [1] (male rats) was 19.7%. In addition, in data set [2], the “Percent of Radioactivity, Human hepatocytes” value is 41.2%.

For the origin of these results see patent publication US6852863B2, “Metabolites of (3-{[4-tert-butyl-benzyl)-(pyridine-3-sulfonyl)-amino]-methyl}-phenoxy)-acetic acid” (Pfizer Inc., priority 2002, dated 2005).
